Measured values reported in patent publication US10632106B2, “Methods of cancer treatment with 2-(1′H-Indole-3′-carbonyl)-thiazole-4-carboxylic acid methyl ester” (Ariagen, Inc., priority 2009, dated 2020).

What was measured:
Assay type in all cases: in vivo
[1] = test system: Murine Lewis lung cancer cell line LLC tumors; experiment: Syngeneic murine Lewis lung cancer (LLC) model in C57BL/6 mice; settings: for TGI (Tumor Growth Inhibition): TGI=ΔT/ΔC×100%
Experimental: (§1) All the procedures related to animal handling, care, and the treatment in the study were performed following guidelines approved by an Institutional Animal Care and Use Committee (IACUC) of Crown Bioscience, Inc. (Santa Clara, Calif., USA, a contract research organization we hired) based on the guidance of the Association for Assessment and Accreditation of Laboratory Animal Care (AAALAC). Animals were checked for any effects of tumor growth and drug treatment on normal behavior such as mobility, food and water consumption, body weight gain/loss (gross body weights were measured twice weekly), eye/hair matting, and any other abnormal effect. Death and observed clinical signs were recorded on the basis of the number of animals within each group. Individual animals with a tumor volume exceeding 3,000 mm^3 or animals of a group with a mean tumor volume exceeding 2,000 mm^3 were euthanized. In addition, animals showing signs of severe distress and/or pain, dropping body weight more than 20% from that at the start of treatment, or losing the capability of accessing adequate food or water were humanely sacrificed.
(§2) Tumor volume was measured twice weekly in two dimensions using a caliper and the volume was calculated with a formula of: V=0.5 a×b^2, where a and b are the long and short diameter (in mm) of a tumor, respectively. The tumor volume was then used for calculations of both TGI (Tumor Growth Inhibition) and TGD (Tumor Growth Delay). The TGI was determined by: TGI=ΔT/ΔC×100%, where ΔT was a difference between the mean tumor volume at a specified day of observation and that at the day treatment starts (day 1) for a drug treated group whereas ΔC was the same difference measured for the control group. The TGD was calculated as: TGD=T−C, where T was the time (in days) required for tumors in a drug treated group to reach a predetermined mean tumor volume and C the time (in days) in the control group to reach the same volume. A tumor weight was derived by equating 1,000 mm^3 in volume to 1,000 mg in weight. A net body weight was then derived by subtracting a tumor weight from a corresponding gross body weight with the tumor.
(§3) Summary statistics, including mean and the standard error of the mean (SEM), are provided for the tumor volume of each group at each time point. Statistical analysis of difference in tumor volume among groups was conducted on a data set either at the best therapeutic time point or at the final dosing day as indicated. The tumor volume data were log-transformed and evaluated using a one-way ANOVA followed by Tukey's test when significance was observed. All data were analyzed using SPSS 16.0 and p<0.05 was considered to be statistically significant.
Murine Lewis lung cancer cell line LLC (ATCC) was cultured as described for LNCaP in Example 1 except DMEM, instead of RPMI-1640, medium being used. Each female C57BL/6 mice, 6 to 8 weeks of age, was inoculated with 3×10^5 LLC cells in 0.1 ml of PBS for tumor development. ITE treatment was started when a mean tumor volume reached 80 to 120 mm^3. All the other materials and methodologies were the same as that described in Example 1.

[2] = test system: human prostate cancer cell line LNCaP xenografts; experiment: LNCaP xenograft growth inhibition in nude mice; settings: for TGI (Tumor Growth Inhibition): TGI=ΔT/ΔC×100%
Experimental: as §1
The human prostate cancer cell line LNCaP (ATCC, American Type Culture Collection, Manassas, Va., USA) were maintained in vitro as monolayer culture in RPMI-1640 medium supplemented with 10% fetal bovine serum (FBS), 100 U/ml penicillin, 100 μg/ml streptomycin, and 2 mM L-glutamine at 37° C. in an atmosphere of 5% CO2 in air. The tumor cells were routinely subcultured twice a week. The cells growing in an exponential phase were harvested and counted for tumor inoculation.
Each mouse was inoculated subcutaneously at the right flank with the LNCaP cells (1×10^7) in 0.1 ml of PBS for tumor development. When a mean tumor volume reached around 150 mm^3, the tumor-bearing mice were divided into homogeneous blocks based on their tumor volumes followed by a randomization of mice in each block into treatment groups (thus minimizing variations in tumor response to treatments due to the differential in initial mean tumor volumes). Each treatment group was consisted of 8 tumor-bearing mice. Vehicle (DMSO) or ITE in the vehicle at specified doses were administered to the mice by either i.p. (intraperitoneal) or p.o. (oral) injection once or twice daily for 28 continuous days as indicated.
as §2, §3

[3] = Mouse cancer model studies of Example 5, all models: animal death; settings: any model, entire therapies; with oral gavage of 20 ml/kg water
Experimental: All the procedures related to animal handling, care, and the treatment in the study were performed following guidelines of KeyGen Biotechn Co., Ltd. (Nanjing, China), a contract research organization we hired, based on the guidance of the Association for Assessment and Accreditation of Laboratory Animal Care (AAALAC). Animals were checked for any effects of tumor growth and drug treatment on normal behavior such as mobility, food and water consumption, body weight gain/loss (bodyweights were measured every two days), eye/hair matting, and any other abnormal effect. Death and observed clinical signs were recorded. Individual animals with a tumor volume exceeding 3,000 mm^3 or animals of a group with a mean tumor volume exceeding 2,000 mm^3 were euthanized. In addition, animals showing signs of severe distress and/or pain or losing the capability of accessing adequate food or water were humanely sacrificed.
Each mouse was inoculated subcutaneously in right armpit with about 1×10^6 cells in 0.1 ml of PBS for tumor development. While cells of human in origin were inoculated into female BALB/c nude mice, MFC cells were inoculated into female 615 mice and U14 and 5180 cells into female ICR mice. When a mean tumor volume reached 50 to 150 mm^3 as indicated, the tumor-bearing mice were divided randomly into vehicle control and ITE treatment group. […]

COC(=O)c1csc(C(=O)c2c[nH]c3ccccc23)n1 [ITE, 2-(1′H-indole-3′-carbonyl)-thiazole-4-carboxylic acid methyl ester]
TGI (Tumor Growth Inhibition) ([1]; 20 mg/kg b.w. i.p. once daily, day 15): 65%
tolerability by body weight change monitoring ([1]; 80 mg/kg b.w. i.p. once daily): tolerated well
tumor elimination in one mouse of the ITE group (mouse No. 33) ([1]; 80 mg/kg b.w. i.p. once daily for 28 days, stayed tumor free for one more month of observation): its tumor was no longer palpable at day 13
TGD (Tumor Growth Delay) ([1]; 80 mg/kg b.w. i.p. once daily, at a tumor volume of 1000 mm^3): 7 days
TGI (Tumor Growth Inhibition) ([1]; 80 mg/kg b.w. i.p. once daily, day 20): 42%
TGD (Tumor Growth Delay) ([2]; 20 mg/kg b.w. i.p. once daily, at a tumor volume of 1,000 mm^3): 8 days
TGI (Tumor Growth Inhibition) ([2]; 20 mg/kg b.w. i.p. once daily, day 28): 64%
toxic response judged from body weight changes of tumor-bearing mice ([2]; 0.1-40 mg/kg b.w. i.p. every 12 hr for 28 days): did not seem to provoke significant toxic response
TGI (Tumor Growth Inhibition) ([2]; ITE 0.1 mg/kg b.w. i.p. every 12 hr for 28 days, DMSO, day 28): 74%
TGI (Tumor Growth Inhibition) ([2]; ITE 1 mg/kg b.w. i.p. every 12 hr for 28 days, day 28): 52%
TGD (Tumor Growth Delay) ([2]; ITE 1 mg/kg b.w. i.p. every 12 hr, at a tumor size of 600 mm^3): 3 days
TGI (Tumor Growth Inhibition) ([2]; ITE 10 mg/kg b.w. i.p. every 12 hr for 28 days, day 28): 31%
TGD (Tumor Growth Delay) ([2]; ITE 10 mg/kg b.w. i.p. every 12 hr, at a tumor size of 600 mm^3): 10 days
TGI (Tumor Growth Inhibition) ([2]; ITE 20 mg/kg b.w. i.p. every 12 hr for 28 days, day 28): 26%
TGD (Tumor Growth Delay) ([2]; ITE 20 mg/kg b.w. i.p. every 12 hr, at a tumor size of 600 mm^3): 12 days
TGI (Tumor Growth Inhibition) ([2]; ITE 40 mg/kg b.w. i.p. every 12 hr for 28 days, day 28): 22%
TGD (Tumor Growth Delay) ([2]; ITE 40 mg/kg b.w. i.p. every 12 hr, at a tumor size of 600 mm^3): 16 days
TGI (Tumor Growth Inhibition) ([2]; ITE 80 mg/kg p.o. daily, day 24): 46%
TGI (Tumor Growth Inhibition) ([2]; ITE 80 mg/kg twice daily i.p., day 28): 12%
TGI (Tumor Growth Inhibition) ([2]; ITE 80 mg/kg twice daily i.p., the last day): 16%
animal death in ITE treatment group [3]: no single animal death
